These results are taken from patent US20120142705A1, “ISATIN AND OXINDOLE COMPOUNDS” (priority 2010, published 2012).

Usually fold induction stands for the signal under treatment as a multiple of the control signal.

The first assay concerns the target T1, Recombinant human liver GK1 (GST-GK) (Homo sapiens, UniProt P35557).
T1 construct: made in house; host or cells: E. coli
T1 sequence (P35557 1-466 isoform P35557-2): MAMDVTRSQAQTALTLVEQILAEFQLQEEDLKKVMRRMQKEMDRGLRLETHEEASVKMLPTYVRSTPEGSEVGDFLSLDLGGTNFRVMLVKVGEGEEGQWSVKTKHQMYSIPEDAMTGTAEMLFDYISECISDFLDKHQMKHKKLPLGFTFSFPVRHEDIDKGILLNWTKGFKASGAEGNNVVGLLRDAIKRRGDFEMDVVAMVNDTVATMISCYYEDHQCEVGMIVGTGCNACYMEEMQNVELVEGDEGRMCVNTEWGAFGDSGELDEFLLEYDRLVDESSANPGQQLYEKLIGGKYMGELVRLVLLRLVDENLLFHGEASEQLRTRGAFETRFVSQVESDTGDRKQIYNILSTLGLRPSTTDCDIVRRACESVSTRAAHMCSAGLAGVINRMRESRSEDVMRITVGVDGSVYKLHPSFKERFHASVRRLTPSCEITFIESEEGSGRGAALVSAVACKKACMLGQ
Description: In vitro glucokinase activity, G6PDH-coupled spectrophotometric assay. Format: biochemical. To be noted: 5 mM D-glucose, 30° C., pH 7.1. The protocol: Glucokinase In Vitro Assay Protocol: Glucokinase (GK) was assayed by coupling the production of glucose-6-phosphate to the generation of NADH with glucose-6-phosphate dehydrogenase (G6PDH, 0.75-1 kunits/mg; Boehringer Mannheim, Indianapolis, Ind.) from Leuconostoc mesenteroides as the coupling enzyme (Scheme 2).
Recombinant human liver GK1 was expressed in E. coli as a glutathione S-transferase fusion protein (GST-GK) [Liang et al, 1995] and was purified by chromatography over a glutathione-Sepharose 4B affinity column using the procedure provided by the manufacturer (Amersham Pharmacia Biotech, Piscataway, N.J.).
The assay was conducted at 30° C. in a flat bottom 96-well tissue culture plate from Costar (Cambridge, Mass.) with a final incubation volume of 120 μL. The incubation reaction contained the following: 25 mM Hepes buffer (pH 7.1), 25 mM KCl, 5 mM D-glucose, 1 mM ATP, 1.8 mM NAD, 2 mM MgCl2, 1 μM sorbitol-6-phosphate, 1 mM dithiothreitol, test drug or 10% dimethylsulfoxide, ˜7 units/ml G6PDH, and GK (see below). All organic reagents were >98% pure and were from Boehringer Mannheim with the exceptions of D-glucose and Hepes which were from Sigma Chemical Co, St Louis, Mo. Test compounds were dissolved in dimethylsulfoxide and were added to the incubation reaction minus GST-GK in a volume of 12 μL to yield a final dimethylsulfoxide concentration of 10%. This mix was pre-incubated in the temperature controlled chamber of a SPECTRAmax 250 microplate spectrophotometer (Molecular Devices Corporation, Sunnyvale, Calif.) for 10 minutes to allow temperature equilibrium and then the reaction was started by the addition of 20 μL GST-GK.
After addition of enzyme, the increase in optical density (OD) at 340 nm was monitored spectrophotometrically to determine the rate of change (OD340 per min). The GK activity (OD340/min) in control wells (10% dimethylsulfoxide minus GK activators) was compared with the activity in wells containing test GK activators, and the concentration of activator that produced a 50% increase in the activity of GK, i.e., the SC1.5, was calculated.
Take `O=C(Nc1nccs1)C(CC1CCCC1)N1C(=O)Cc2ccccc21` (stereo not drawn) [Example 3, 3-Cyclopentyl-2-(2-oxo-2,3-dihydro-indol-1-yl)-N-thiazol-2-yl-propionamide]: the “SC1.5 (concentration of activator that produced a 50% increase in the activity of GK)” value turned out to be 3.3 µM. Turning to `CC(C)CC(C(=O)Nc1ccn(C)n1)N1C(=O)Cc2cc(OC(F)(F)F)ccc21` (stereo not drawn) [Example 42, 4-Methyl-2-(2-oxo-5-trifluoromethoxy-2,3-dihydro-indol-1-yl)-pentanoic acid (1-methyl-1H-pyrazol-3-yl)-amide], the “SC1.5 (concentration of activator that produced a 50% increase in the activity of GK)” value was found to be 8.12 µM. For the compound `Cn1ccc(NC(=O)C(CC2CCCC2)N2C(=O)C(=O)c3cc(OC(F)(F)F)ccc32)n1` (stereo not drawn) [Example 31, 3-Cyclopentyl-2-(2,3-dioxo-5-trifluoromethoxy-2,3-dihydro-indol-1-yl)-N-(1-methyl-1H-pyrazol-3-yl)-propionamide], the “SC1.5 (concentration of activator that produced a 50% increase in the activity of GK)” value was found to be 1.65 µM. On the same count and under the same terms, next, `CC(C)CC(C(=O)Nc1nccs1)N1C(=O)Cc2c(Cl)cccc21` (stereo not drawn) [Example 28, 2-(4-Chloro-2-oxo-2,3-dihydro-indol-1-yl)-4-methyl-pentanoic acid thiazol-2-ylamide]: 9.95 µM; `O=C(Nc1ccccn1)C(CC1CCCC1)N1C(=O)Cc2ccc(F)cc21` (stereo not drawn) [Example 127, 3-Cyclopentyl-2-(6-fluoro-2-oxo-2,3-dihydro-indol-1-yl)-N-pyridin-2-yl-propionamide]: 0.18 µM.

On to `O=C(Nc1ccccn1)C(CC1CCCC1)N1C(=O)Cc2cc(OC(F)(F)F)ccc21` (stereo not drawn) [Example 33, 3-Cyclopentyl-2-(2-oxo-5-trifluoromethoxy-2,3-dihydro-indol-1-yl)-N-pyridin-2-yl-propionamide], for which the “SC1.5 (concentration of activator that produced a 50% increase in the activity of GK)” value stood at 0.13 µM. On the same count and under the same terms, next, `O=C1C(=O)N(C(CC2CCCC2)C(=O)Nc2nccs2)c2ccc(OC(F)(F)F)cc21` (stereo not drawn) [Example 32, 3-Cyclopentyl-2-(2,3-dioxo-5-trifluoromethoxy-2,3-dihydro-indol-1-yl)-N-thiazol-2-yl-propionamide]: 0.76 µM; `O=C(Nc1ccccn1)C(CC1CCCC1)N1C(=O)Cc2ccc(Cl)cc21` (stereo not drawn) [Example 122, 2-(6-Chloro-2-oxo-2,3-dihydro-indol-1-yl)-3-cyclopentyl-N-pyridin-2-yl-propionamide]: 0.1 µM. Still for that read-out and setting: next, `Cc1ccc2c(c1)N(C(CC1CCCC1)C(=O)Nc1cnccn1)C(=O)C2` (stereo not drawn) [Example 130, 3-Cyclopentyl-2-(6-methyl-2-oxo-2,3-dihydro-indol-1-yl)-N-pyrazin-2-yl-propionamide]: 0.61 µM; `O=C1C(=O)N(C(CC2CCCC2)C(=O)Nc2nccs2)c2ccccc21` (stereo not drawn) [Example 4, 3-Cyclopentyl-2-(2,3-dioxo-2,3-dihydro-indol-1-yl)-N-thiazol-2-yl-propionamide]: 5.21 µM; `CC(C)CC(C(=O)Nc1cnccn1)N1C(=O)Cc2cc(Cl)ccc21` (stereo not drawn) [Example 106, 2-(5-Chloro-2-oxo-2,3-dihydro-indol-1-yl)-4-methyl-pentanoic acid pyrazin-2-ylamide]: 20.67 µM. Consider `CC(C)CC(C(=O)Nc1ccccn1)N1C(=O)C(=O)c2ccc(Cl)cc21` (stereo not drawn) [Example 110, 2-(6-Chloro-2,3-dioxo-2,3-dihydro-indol-1-yl)-4-methyl-pentanoic acid pyridin-2-ylamide], for which the “SC1.5 (concentration of activator that produced a 50% increase in the activity of GK)” value turned out to be 1.49 µM.

Regarding `CC(C)CC(C(=O)Nc1ccn(C)n1)N1C(=O)C(=O)c2ccc(Cl)cc21` (stereo not drawn) [Example 111, 2-(6-Chloro-2,3-dioxo-2,3-dihydro-indol-1-yl)-4-methyl-pentanoic acid (1-methyl-1H-pyrazol-3-yl)-amide], the “SC1.5 (concentration of activator that produced a 50% increase in the activity of GK)” value came to 15.93 µM. `Cc1ccc2c(c1)CC(=O)N2C(CC1CCCC1)C(=O)Nc1ccn(C)n1` (stereo not drawn) [Example 81, 3-Cyclopentyl-2-(5-methyl-2-oxo-2,3-dihydro-indol-1-yl)-N-(1-methyl-1H-pyrazol-3-yl)-propionamide]: the “SC1.5 (concentration of activator that produced a 50% increase in the activity of GK)” value amounted to 11.29 µM. Regarding `CC(C)CC(C(=O)Nc1nccs1)N1C(=O)C(=O)c2c(Cl)cccc21` (stereo not drawn) [Example 20, 2-(4-Chloro-2,3-dioxo-2,3-dihydro-indol-1-yl)-4-methyl-pentanoic acid thiazol-2-ylamide], the “SC1.5 (concentration of activator that produced a 50% increase in the activity of GK)” value is 7.72 µM. On to `O=C(Nc1ccccn1)C(CC1CCCC1)N1C(=O)Cc2cc(Cl)ccc21` (stereo not drawn) [Example 100, 2-(5-Chloro-2-oxo-2,3-dihydro-indol-1-yl)-3-cyclopentyl-N-pyridin-2-yl-propionamide], for which the “SC1.5 (concentration of activator that produced a 50% increase in the activity of GK)” value was 0.49 µM. The same measure, in the same setting: next, `O=C1C(=O)N(C(CC2CCCC2)C(=O)Nc2cnccn2)c2ccc(Cl)cc21` (stereo not drawn) [Example 96, 2-(5-Chloro-2,3-dioxo-2,3-dihydro-indol-1-yl)-3-cyclopentyl-N-pyrazin-2-yl-propionamide]: 4.04 µM; `O=C(Nc1cnccn1)C(CC1CCCC1)N1C(=O)Cc2cc(Cl)ccc21` (stereo not drawn) [Example 97, 2-(5-Chloro-2-oxo-2,3-dihydro-indol-1-yl)-3-cyclopentyl-N-pyrazin-2-yl-propionamide]: 1.84 µM; `Cc1ccc2c(c1)C(=O)C(=O)N2C(CC1CCCC1)C(=O)Nc1ccccn1` (stereo not drawn) [Example 77, 3-Cyclopentyl-2-(5-methyl-2,3-dioxo-2,3-dihydro-indol-1-yl)-N-pyridin-2-yl-propionamide]: 6.67 µM.

As to `O=C(Nc1ccccn1)C(CC1CCCC1)N1C(=O)Cc2c(Cl)cccc21` (stereo not drawn) [Example 21, 2-(4-Chloro-2-oxo-2,3-dihydro-indol-1-yl)-3-cyclopentyl-N-pyridin-2-yl-propionamide], the “SC1.5 (concentration of activator that produced a 50% increase in the activity of GK)” value is 1.23 µM.

Still in this assay, the particulars now being: @ 30 uM; 5 mM D-glucose, 30° C.
Turning to `COc1ccc2c(c1)C(=O)C(=O)N2C(CC(C)C)C(=O)Nc1cnccn1` (stereo not drawn) [Example 53, 2-(5-Methoxy-2,3-dioxo-2,3-dihydro-indol-1-yl)-4-methyl-pentanoic acid pyrazin-2-ylamide], the fold induction at 30 µM is 1.16.

Regarding `CC(C)CC(C(=O)Nc1ccn(C)n1)N1C(=O)Cc2c(Cl)cccc21` (stereo not drawn) [Example 27, 2-(4-Chloro-2-oxo-2,3-dihydro-indol-1-yl)-4-methyl-pentanoic acid (1-methyl-1H-pyrazol-3-yl)-amide], the fold induction at 30 µM was 1.39. For the compound `COc1ccc2c(c1)C(=O)C(=O)N2C(CC(C)C)C(=O)Nc1nccs1` (stereo not drawn) [Example 55, 2-(5-Methoxy-2,3-dioxo-2,3-dihydro-indol-1-yl)-4-methyl-pentanoic acid thiazol-2-ylamide], the fold induction at 30 µM was found to be 1.39. Regarding `CC(C)CC(C(=O)Nc1cnccn1)N1C(=O)C(=O)c2c(Cl)cccc21` (stereo not drawn) [Example 17, 2-(4-Chloro-2,3-dioxo-2,3-dihydro-indol-1-yl)-4-methyl-pentanoic acid pyrazin-2-ylamide], the fold induction at 30 µM was 1.39.
